# Read-outs that look alike come from different tables or passages of the source.
# Tests used:
# [1] = tested on: H69 tumors; assay: H69 model tumor growth inhibition; format: in vivo
# [2] = tested on: H69 tumors; assay: PD studies with H69 model, PH3 and CC3 by Western blot and IHC; format: in vivo
# Description: PD studies were carried out with H69 model to determine the in vivo response of conjugate effects on tumor cells and timing/peak response. Conjugate 57 and Conjugate 57 in nanoparticles (Conjugate 57/NP20) were tested at 2 mg/kg. NP20 formulation has been described in EXAMPLE 2. Western blot and IHC staining were carried out to measure PH3 and CC3 levels.
# PH3 is correlated chromosome condensation during both mitosis and meiosis. […] As shown in Western Blot results in FIG. 18A, the peak response for PH3 occurs at 48 hours for both the conjugate and the conjugate in the nanoparticle. […] PH3 level was steady for Conjugate 57/NP20 samples.
# CC3 is a marker of apoptosis. It is the executioner of apoptosis and tightly regulated. A peak in activity is seen for both Conjugate 57 and Conjugate 57/NP20 at 72 hours (FIG. 19). The activity of Conjugate 57 is stronger as compared to Conjugate 57/NP20, consistent with the PH3 results.
# Cell arrest as indicated by PH3 levels peaked at 48 hr and apoptosis as indicated by CC3 levels peaked at 72 hr.
# [3] = Plasma pharmacokinetics; format: in vivo; conditions: for Vd: read-out: Vss
# Description: In this example, plasma pharmacokinetics of Conjugate 57 was studied in mouses, rats and dogs. Half-life, maximum plasma drug concentration (Cmax), drug clearance (CL), area under the curve time curve from time 0 to the last sampling time (AUC 0-t), and apparent volume of distribution at steady state (VSS) were measured.
# [4] = tested on: NCI-H69 SCLC tumors; assay: NCI-H69 SCLC xenografts, PH3 and CC3 after a single dose; format: in vivo, mice
# Description: Conjugate 57 was assessed in an in vivo study with NCI-H69 SCLC xenografts model. A single 2 mg/kg dose of Conjugate 57 was administered to mice bearing NCI-H69 SCLC tumors. Levels of cell cycle arrest marker phosphohistone H3 (PH3) were measured at the periphery, middle and core of the tumors. Phosphorylated histone H3 is correlated chromosome condensation during both mitosis and meiosis. […] The biological effects from Conjugate 57 were seen deep in the tumor and distant from blood vessels. Cell death peaks at around 3 days after dosing. […] Conjugates of the present invention can rapidly and deeply penetrate tumor and can exert a prolonged effect on tumor biology.
# [5] = Plasma protein binding; format: in vitro ADME; conditions: for fraction unbound at 1 uM: read-out: Free fraction at 1 uM (%); for fraction unbound at 10 uM: read-out: Free fraction at 10 uM (%)
# From the text: Plasma protein binding is not concentration dependent and is consistent across species.
# [6] = tested on: NIC-H524 tumor xenograft model (SSTR2 expressing); assay: Dose response study in NIC-H524 tumor xenograft model; format: in vivo
# Description: A dose response study was carried out in NIC-H524 tumor xenograft model (SSTR2 expressing) with a single dose of Conjugate 57. Doses evaluated were 0.5 mg/kg, 1.0 mg/kg, and 2.0 mg/kg.
# [7] = tested on: passage 3 IMR-32 tumors; assay: IMR-32 tumor model; format: in vivo, mice
# Description: Further, mice bearing passage 3 IMR-32 tumors were dosed with Conjugate 57 either at 2.0 mg/kg or 1.5 mg/kg once a week for two weeks with a vehicle negative control. […] The 1.5 mpk group only lost an average of 2.0%. All mice recovered once dosing was complete.
# [8] = tested on: IMR-32 cells; assay: In vitro competitive assay in IMR-32 cells; format: cell-based; conditions: absence of octreotide
# Description: First, an in vitro competitive assay was conducted where IMR-32 cells were treated with Conjugate 57 in the absence or presence of an excess of octreotide. […] Pre-incubation with octreotide affected the inhibition.
# [9] = NCI-H524 small cell lung cancer model, tumor volume and body weight; format: in vivo; conditions: in vivo; read-out: maximum tolerated dose (MTD)
# From the text: (§1) NCI-H524 over expresses SSTR2. […] There was minimal body weight loss and favorable toxicology.
# [10] = tested on: NCI-H524 small cell lung cancer model; assay: as above; format: in vivo
# From the text: as §1
# [11] = tested on: HCC-33 (SCLC) xenografts; assay: HCC-33 (SCLC) xenografts, tumor growth inhibition (Example 13); format: in vivo; conditions: for TGI % Day 5 / TGI % Day 8 / TGI % Day 12 / TGI % Day 16 / TGI % Day 20 / TGI % Day 23 / TGI % Day 27 / TGI % Day 30: dosed on Day 1 and Day 8
# Description: The efficacy of Conjugate 57 was studied with HCC-33 (SCLC) xenografts. Conjugate 57 was dosed on Day 1 and Day 8.
# [12] = single dose 0.5, 1.0 and 2.0 mg/kg
# [13] = both groups (2 mg/kg and 1 mg/kg)
smiles,measurement,setting,value
COc1cc2cc(c1Cl)N(C)C(=O)C[C@H](OC(=O)[C@H](C)N(C)C(=O)CCSSC[C@H](NC(=O)[C@@H]1CSSC[C@H](NC(=O)[C@H](N)Cc3ccccc3)C(=O)N[C@@H](Cc3ccc(O)cc3)C(=O)N[C@H](Cc3c[nH]c4ccccc34)C(=O)N[C@@H](CCCCN)C(=O)N[C@@H]([C@@H](C)O)C(=O)N1)C(N)=O)[C@]1(C)O[C@H]1[C@H](C)[C@@H]1C[C@@](O)(NC(=O)O1)[C@H](OC)/C=C/C=C(\C)C2 [Conjugate 57],TGI % Day 8,[1]; Conjugate 57 1 mg/kg,50.1%
same,TGI % Day 11,[1]; Conjugate 57 1 mg/kg,61.4%
same,TGI % Day 14,[1]; Conjugate 57 1 mg/kg,60.4%
same,TGI % Day 19,[1]; Conjugate 57 1 mg/kg,63%
same,TGI % Day 22,[1]; Conjugate 57 1 mg/kg,58.4%
same,TGI % Day 8,[1]; Conjugate 57 2 mg/kg,63.8%
same,TGI % Day 11,[1]; Conjugate 57 2 mg/kg,82.8%
same,TGI % Day 14,[1]; Conjugate 57 2 mg/kg,87.9%
same,TGI % Day 19,[1]; Conjugate 57 2 mg/kg,95.5%
same,TGI % Day 22,[1]; Conjugate 57 2 mg/kg,97.8%
same,"time of PH3 signal peak, IHC",[2]; 2 mg/kg,48 h
same,time of peak in CC3 activity,[2]; 2 mg/kg,72 h
same,"time of peak response for PH3, Western Blot",[2]; 2 mg/kg,48 h
same,"time of peak of apoptosis as indicated by CC3 levels (fold change, FIG. 21)",[2]; H69,72 h
same,"time of peak of cell arrest as indicated by PH3 levels (fold change, FIG. 21)",[2]; H69,48 h
same,AUC(0-t),"[3]; Dog, 0.1 mg/kg",0.619 µM·h
same,Cmax,"[3]; Dog, 0.1 mg/kg",0.73 µM
same,clearance,"[3]; Dog, 0.1 mg/kg",1.39 mL/min/kg
same,half-life,"[3]; Dog, 0.1 mg/kg",2.86 h
same,Vd,"[3]; Dog, 0.1 mg/kg",0.224 L/kg
same,AUC(0-t),"[3]; Mouse, 2 mg/kg",7.3 µM·h
same,Cmax,"[3]; Mouse, 2 mg/kg",5.93 µM
same,clearance,"[3]; Mouse, 2 mg/kg",2.32 mL/min/kg
same,half-life,"[3]; Mouse, 2 mg/kg",12.2 h
same,Vd,"[3]; Mouse, 2 mg/kg",0.963 L/kg
same,AUC(0-t),"[3]; Rat, 1.5 mg/kg",2.77 µM·h
same,Cmax,"[3]; Rat, 1.5 mg/kg",4.69 µM
same,clearance,"[3]; Rat, 1.5 mg/kg",4.99 mL/min/kg
same,half-life,"[3]; Rat, 1.5 mg/kg",8.07 h
same,Vd,"[3]; Rat, 1.5 mg/kg",0.594 L/kg
same,"PH3 levels at periphery, middle and core of the tumors",[4]; single 2 mg/kg dose,Elevated levels of PH3 are seen at all depths of the tumor through 72 h
same,time of peak cell death (cleaved caspase-3),[4]; single dose of 2 mg/kg,around 3 days
same,fraction unbound at 1 uM,[5]; Dog plasma,0.044
same,fraction unbound at 10 uM,[5]; Dog plasma,0.033
same,fraction unbound at 1 uM,[5]; Human plasma,0.078
same,fraction unbound at 10 uM,[5]; Human plasma,0.078
same,fraction unbound at 1 uM,[5]; Mouse plasma,0.082
same,fraction unbound at 10 uM,[5]; Mouse plasma,0.094
same,fraction unbound at 1 uM,[5]; Rat plasma,0.063
same,fraction unbound at 10 uM,[5]; Rat plasma,0.074
same,dose response (tumor volume),[6]; [12],clear dose response
same,tolerability (body weight change),[6]; [12],all doses are well-tolerated
same,tumor response (tumor volume),[6]; single dose of 2 mg/kg,significant regression
same,average body weight loss after the second dosing event,[7]; 2.0 mg/kg once a week for two weeks,8.0%
same,mice showing complete regression,"[7]; both treatment groups, 2.0 mg/kg or […] once a week for two weeks",10 out of 10
same,growth of IMR-32 cells,[8],inhibited the growth of IMR-32 cells
same,MTD,[9],2 mg/kg
same,tumor response (mean tumor volume),[10]; 2 mg/kg (MTD) and 1 mg/kg,complete tumor regressions
same,tolerability (mean body weight change),[10]; in vivo,well tolerated
same,TGI % Day 5,[11]; 1 mg/kg,46.2%
same,TGI % Day 8,[11]; 1 mg/kg,71.3%
same,TGI % Day 12,[11]; 1 mg/kg,87.2%
same,TGI % Day 16,[11]; 1 mg/kg,96.3%
same,TGI % Day 20,[11]; 1 mg/kg,98.1%
same,TGI % Day 23,[11]; 1 mg/kg,99.2%
same,TGI % Day 27,[11]; 1 mg/kg,99.6%
same,TGI % Day 30,[11]; 1 mg/kg,99.6%
same,TGI % Day 5,[11]; 2 mg/kg,47%
same,TGI % Day 8,[11]; 2 mg/kg,74.8%
same,TGI % Day 12,[11]; 2 mg/kg,88.2%
same,TGI % Day 16,[11]; 2 mg/kg,96.2%
same,TGI % Day 20,[11]; 2 mg/kg,98.3%
same,TGI % Day 23,[11]; 2 mg/kg,99.1%
same,TGI % Day 27,[11]; 2 mg/kg,99.5%
same,TGI % Day 30,[11]; 2 mg/kg,99.9%
same,Body weights,[11]; [13],increased
same,Tumor regression,[11]; [13],~100%
